Laboratory results published in US11753418B2, “Compounds for the modulation of Myc activity” (Syros Pharmaceuticals, Inc., priority 2015, dated 2023).
Where a name gives a salt, the structure may show the parent alone.

Molecular target: T1, c-Myc/Max/Ebox DNA (Homo sapiens, UniProt P01106)
T1 construct: his6 (cleaved yes)
Test: c-Myc/Max/Ebox DNA AlphaScreen Assay
Format: binding
Conditions: free c-Myc 20 nM, his6-Max 5 nM, biotinylated Ebox oligo 10 nM, 2 hour incubation
Experimental: Compounds of the invention were assayed for c-Myc/Max/EBox activity as described in the following protocol. Human his6-c-Myc and his6-Max were used with biotinylated DNA containing a single Ebox sequence (biotin[…]) purchased from MWG Operon. Free c-Myc was generated from his6-c-Myc through thrombin cleavage of the his6 tag. For 384-well plate assays, 10 μL of a 2× solution of free c-Myc (20 nM final), Ni^2+ coated Acceptor Beads (25 μg/ml final), and biotinylated Ebox oligo (10 nM final) were added to 384-well plates with a Biotek EL406 liquid handler. 50 nL of compounds from stock plates were added by pin transfer using a Janus Workstation (PerkinElmer), allowing the compounds to interact with c-Myc prior to c-Myc binding with Max. In the current assay, DMSO was not allowed to exceed 2% v/v of the assay. 10 μl of 2× master mix containing streptavidin-coated donor beads (25 μg/ml final) and his6-Max (5 nM) were added. AlphaScreen measurements were performed on an Envision plate reader (PerkinElmer) utilizing the manufacturer's protocol.
Both master mixes were made in room temperature assay buffer (50 mM HEPES, 150 mM NaCl, 0.2% w/v BSA, 0.02% w/v Tween20, 40 μg/ml glycogen, 500 μM DTT, pH 8.0, wherein both DTT and glycogen were added fresh). Alpha beads were added to respective master solutions. All subsequent steps were performed in low light conditions. Solution 1: 2× solution of components with final concentrations of c-Myc Ni-coated Acceptor Beads (25 μg/ml), and biotinylated Ebox oligo (10 nM). Solution 2: 2× solution of streptavidin-coated donor beads (25 μg/ml final) and his6-Max […]. Solution 1 was added to 384-well plate (AlphaPlate-384, PerkinElmer) with Biotek EL406 liquid handler and the plates were centrifuged very briefly. 50 nL of compounds from stock plates were added by pin transfer using a Janus Workstation. Solution 2 (10 μL) was added with the liquid handler. Plates were sealed with foil to block light exposure and prevent evaporation. Plates were very briefly centrifuged followed by 2 hour incubation. AlphaScreen measurements were performed on an Envision 2104 utilizing the manufacturer's protocol. Excitation was at 680 nm for donor bead release of singlet oxygen and emission was read with a bandpass filter from 520-620 nm. Glycogen: Roche Diagnostics #10901393001. Plate 1536: Perkin Elmer, 6004350. Plate 384: Perkin Elmer, 6005350. Nickel-His Alpha Beads: 6760619R. The data from this assay are summarized in Table 3 below (Myc/Max/DNA Activity).

T1 sequence (P01106 whole entry): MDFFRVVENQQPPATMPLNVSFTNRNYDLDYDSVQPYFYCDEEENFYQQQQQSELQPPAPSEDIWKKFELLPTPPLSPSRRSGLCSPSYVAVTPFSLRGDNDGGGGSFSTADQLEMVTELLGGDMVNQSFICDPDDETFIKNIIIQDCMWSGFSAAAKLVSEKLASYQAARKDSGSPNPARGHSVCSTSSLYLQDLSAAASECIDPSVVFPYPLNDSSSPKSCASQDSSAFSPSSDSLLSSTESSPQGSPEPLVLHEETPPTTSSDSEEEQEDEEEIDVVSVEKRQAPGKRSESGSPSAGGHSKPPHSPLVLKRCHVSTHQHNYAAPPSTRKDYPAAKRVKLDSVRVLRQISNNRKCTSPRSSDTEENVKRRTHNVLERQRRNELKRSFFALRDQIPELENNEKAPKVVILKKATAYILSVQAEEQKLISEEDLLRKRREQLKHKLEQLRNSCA

IC50 [nM]	SMILES
500 to 5000	CCN1[C@@H](C)Cc2c(sc(NC(C)=O)c2-c2nc3cnccc3s2)[C@@H]1C [Compound 120, N-((5S,7S)-6-ethyl-5,7-dimethyl-3-(thiazolo[4,5-c]pyridin-2-yl)-4,5,6,7-tetrahydrothieno[2,3-c]pyridin-2-yl)acetamide]
500 to 5000	CC(=O)Nc1sc2c(c1-c1nc3cnccc3s1)CCN(CCN)C2 [Compound 121, N-(6-(2-aminoethyl)-3-(thiazolo[4,5-c]pyridin-2-yl)-4,5,6,7-tetrahydrothieno[2,3-c]pyridin-2-yl)acetamide hydrochloride]
< 500	O=C(CCN1CC2(CNC2)C1)Nc1sc2c(c1-c1nc3cnccc3s1)CCNC2 [Compound 123]
< 500	O=C(CCN1CCC2(CCOC2)C1)Nc1sc2c(c1-c1nc3cnccc3s1)CCNC2 (stereo not shown) [Compound 126]
500 to 5000	O=C(CCN1CC2(C1)CS(=O)(=O)C2)Nc1sc2c(c1-c1nc3cnccc3s1)CCNC2 [Compound 128]
< 500	O=C(CCN1C[C@@H]2CC(F)(F)C[C@@H]2C1)Nc1sc2c(c1-c1nc3cnccc3s1)CCNC2 [Compound 129]
< 500	O=C(CCN1CC2CCC2C1)Nc1sc2c(c1-c1nc3cnccc3s1)CCNC2 (stereo not shown) [Compound 130]
< 500	O=C(CCN1CC2COCC2C1)Nc1sc2c(c1-c1nc3cnccc3s1)CCNC2 (stereo not shown) [Compound 131]
500 to 5000	Cc1cc(C)n(CCNCCC(=O)Nc2sc3c(c2-c2nc4cnccc4s2)CCNC3)n1 [Compound 136]
< 500	C[C@H](NCCC(=O)Nc1sc2c(c1-c1nc3cnccc3s1)CCNC2)C1CC1 [Compound 137]
< 500	O=C(CCNCc1ccno1)Nc1sc2c(c1-c1nc3cnccc3s1)CCNC2 [Compound 141]
500 to 5000	O=C(CCN1CCC(c2ccc(Cl)cc2)CC1)Nc1sc2c(c1-c1nc3cnccc3s1)CCNC2 [Compound 143]
< 500	CC1CC1NCCC(=O)Nc1sc2c(c1-c1nc3cnccc3s1)CCNC2 (stereo not shown) [Compound 145]
< 500	O=C(CCNC1CNCC1O)Nc1sc2c(c1-c1nc3cnccc3s1)CCNC2 (stereo not shown) [Compound 146]
< 500	O=C(CCNC1CCOC1)Nc1sc2c(c1-c1nc3cnccc3s1)CCNC2 (stereo not shown) [Compound 147]
< 500	O=C(CCN[C@H]1COC[C@@H]1O)Nc1sc2c(c1-c1nc3cnccc3s1)CCNC2 [Compound 148]
< 500	O=C(CCN1C[C@H]2CN[C@H]2C1)Nc1sc2c(c1-c1nc3cnccc3s1)CCNC2 [Compound 154]
< 500	O=C(CCN1CC[C@@H]2NCC[C@@H]21)Nc1sc2c(c1-c1nc3cnccc3s1)CCNC2 [Compound 155]
< 500	O=C(CCNCc1cscn1)Nc1sc2c(c1-c1nc3cnccc3s1)CCNC2 [Compound 160]
500 to 5000	CN1CCN(CCC(=O)Nc2sc3c(c2-c2nc4cnccc4s2)CCNC3)CC1=O [Compound 162]
500 to 5000	O=C(CCN1CC2CCC(C1)O2)Nc1sc2c(c1-c1nc3cnccc3s1)CCNC2 [Compound 163]
< 500	CC1(C)CCCN1CCC(=O)Nc1sc2c(c1-c1nc3cnccc3s1)CCNC2 [Compound 164]
< 500	O=C(CCNC1CCNCC1)Nc1sc2c(c1-c1nc3cnccc3s1)CCNC2 [Compound 165]
< 500	O=C(CCNCc1ccn[nH]1)Nc1sc2c(c1-c1nc3cnccc3s1)CCNC2 [Compound 166]
< 500	O=C(CCN1CCCOCC1)Nc1sc2c(c1-c1nc3cnccc3s1)CCNC2 [Compound 170]
< 500	Cc1ccsc1CNCCC(=O)Nc1sc2c(c1-c1nc3cnccc3s1)CCNC2 [Compound 171]

Continued, compound first:

SMILES	IC50 [nM]
CC(=O)Nc1sc2c(c1-c1nc3cnccc3s1)CC(C)NC2C (mixture of isomers) [Compound 109, N-(5,7-dimethyl-3-(thiazolo[4,5-c]pyridin-2-yl)-4,5,6,7-tetrahydrothieno[2,3-c]pyridin-2-yl)acetamide]	500 to 5000
CC(=O)Nc1sc2c(c1-c1nc3cnccc3s1)CNC2 [Compound 102, N-(3-(thiazolo[4,5-c]pyridin-2-yl)-5,6-dihydro-4H-thieno[2,3-c]pyrrol-2-yl)acetamide]	500 to 5000
CC(=O)Nc1sc2c(c1-c1nc3cnccc3s1)C(C)CNC2 (stereo not shown) [Compound 104, N-(4-methyl-3-(thiazolo[4,5-c]pyridin-2-yl)-4,5,6,7-tetrahydrothieno[2,3-c]pyridin-2-yl)acetamide]	500 to 5000
CC(=O)Nc1sc2c(c1-c1nc3cnccc3s1)CCN(CCN1CCOCC1)C2 [Compound 112]	5000 to 25000
CC(=O)Nc1sc2c(c1-c1nc3cnccc3s1)CCN(C(C)C)C2 [Compound 115, N-(6-isopropyl-3-(thiazolo[4,5-c]pyridin-2-yl)-4,5,6,7-tetrahydrothieno[2,3-c]pyridin-2-yl)acetamide]	500 to 5000
O=C(CCN1CCC[C@@]2(CCCN2)C1)Nc1sc2c(c1-c1nc3cnccc3s1)CCNC2 [Compound 124]	< 500
O=C(CCN1CC2(CCOC2)C1)Nc1sc2c(c1-c1nc3cnccc3s1)CCNC2 [Compound 125]	< 500
O=C(CCN1CCC2(CC2)C1)Nc1sc2c(c1-c1nc3cnccc3s1)CCNC2 [Compound 127]	< 500
CC1CC(NCCC(=O)Nc2sc3c(c2-c2nc4cnccc4s2)CCNC3)C1 (stereo not shown) [Compound 133]	< 500
O=C(CCNCC1CCC1)Nc1sc2c(c1-c1nc3cnccc3s1)CCNC2 [Compound 135]	< 500
CC(C)C[C@H](CO)NCCC(=O)Nc1sc2c(c1-c1nc3cnccc3s1)CCNC2 [Compound 138]	< 500
O=C(CCNC(CO)c1ccc(F)cc1)Nc1sc2c(c1-c1nc3cnccc3s1)CCNC2 (stereo not shown) [Compound 139]	500 to 5000
Cc1coc(CNCCC(=O)Nc2sc3c(c2-c2nc4cnccc4s2)CCNC3)n1 [Compound 140]	500 to 5000
CC1CN(CCC(=O)Nc2sc3c(c2-c2nc4cnccc4s2)CCNC3)CC(=O)N1 (stereo not shown) [Compound 144]	500 to 5000
O=C(CCN1CCC(OC2CCC2)CC1)Nc1sc2c(c1-c1nc3cnccc3s1)CCNC2 [Compound 149]	< 500
CN(C)[C@H]1CCN(CCC(=O)Nc2sc3c(c2-c2nc4cnccc4s2)CCNC3)C1 [Compound 150]	< 500
COC1(C)CCN(CCC(=O)Nc2sc3c(c2-c2nc4cnccc4s2)CCNC3)CC1 [Compound 151]	< 500
COCC1CCCCN1CCC(=O)Nc1sc2c(c1-c1nc3cnccc3s1)CCNC2 (stereo not shown) [Compound 152]	< 500
Cc1cc(CC(C)NCCC(=O)Nc2sc3c(c2-c2nc4cnccc4s2)CCNC3)on1 (stereo not shown) [Compound 156]	< 500
CN(CCC(=O)Nc1sc2c(c1-c1nc3cnccc3s1)CCNC2)Cc1cnc(Cl)s1 [Compound 157]	500 to 5000
O=C(CCNCCN1CCCCC1=O)Nc1sc2c(c1-c1nc3cnccc3s1)CCNC2 [Compound 158]	< 500
Cc1nc(C)c(CNCCC(=O)Nc2sc3c(c2-c2nc4cnccc4s2)CCNC3)s1 [Compound 159]	500 to 5000
CN(C)C1CN(CCC(=O)Nc2sc3c(c2-c2nc4cnccc4s2)CCNC3)C1 [Compound 161]	< 500
O=C(CCNC1CC(O)C1)Nc1sc2c(c1-c1nc3cnccc3s1)CCNC2 (stereo not shown) [Compound 167]	< 500
COC(=O)CCCNCCC(=O)Nc1sc2c(c1-c1nc3cnccc3s1)CCNC2 [Compound 168]	< 500
COCC1CCCN1CCC(=O)Nc1sc2c(c1-c1nc3cnccc3s1)CCNC2 (stereo not shown) [Compound 169]	< 500
